The values that follow come from patent publication US5959109A, “Compounds and methods for increasing endogenous levels of corticotropin-releasing factor” (Neurocrine Biosciences, Inc., priority 1996, dated 1999).

Bounds are passed on as bounds.

The first test has as its system human CRF-BP.
Assay: not given
Conditions: cited from earlier work.
In the case of sauvagine, the “affinity for CRF-BP” value is listed as “bind CRF-BP with high affinity”.
On to “oCRF: the standard oCRF, which is arbitrarily considered as 1.0”, for which the “affinity for CRF-BP” value was “low affinity”.

The target of a further test is T1, human recombinant CRF-BP (Homo sapiens, UniProt P24387).
T1 construct: made in house
T1 sequence (P24387 25-322): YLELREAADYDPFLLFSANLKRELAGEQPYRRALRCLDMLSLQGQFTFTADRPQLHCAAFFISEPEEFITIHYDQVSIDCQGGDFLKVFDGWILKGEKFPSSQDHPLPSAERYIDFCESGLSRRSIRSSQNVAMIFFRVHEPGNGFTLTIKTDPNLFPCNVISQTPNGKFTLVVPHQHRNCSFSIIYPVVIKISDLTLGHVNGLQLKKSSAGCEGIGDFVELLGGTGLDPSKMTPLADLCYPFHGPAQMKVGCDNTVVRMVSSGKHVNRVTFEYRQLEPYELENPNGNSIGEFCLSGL
As to the kind of experiment: LIRMA: displacement of 125I-h/rCRF from CRF-BP, Ki. Type of test: binding. Conditions: inhibitory binding affinity constant (Ki). The method, then:
In LIRMA CRF-BP isolated from brain tissue, serum, or cells expressing a recombinant form, is added to wells of a 96-well plate, to small polypropylene microfuge tubes, or to glass borosilicate tubes in a binding buffer (0.02% NP-40 in 50 mM phosphate-buffered saline). ^125 I-h/rCRF (New England Nuclear) and the candidate ligand inhibitor at 10 μM are added and the reaction is incubated for 1 hour at room temperature. An appropriately diluted anti-CRF-BP antibody, such as a rabbit anti-hCRF-BP (Potter et al., Proc. Natl. Acad. Sci. USA 89:4192-4196, 1992) is added to each tube, and after further incubation, bound complexes are precipitated by the further addition of a goat anti-rabbit antibody. The precipitate containing ^125 I-CRF is collected by centrifugation and the amount of radioactivity in the pellet is determined by a gamma counter. If the candidate ligand inhibitor displaces CRF from CRF-BP, the pellets will contain less radioactivity in comparison to controls in which no candidate peptide is added. Maximum inhibition (i.e., 100%) of the binding of ^125 I-h/rCRF to the CRF-BP is defined by the amount of radioactivity left in the pellets after incubation with 10 μM of the CRF-BP peptide ligand h/rCRF (6-33). Thus, the binding potency of the candidate ligand inhibitor will be measured relative to the potency of the standard h/rCRF (6-33).
Thus, a ligand having a Ki of less than that of hCRF will bind more strongly to hCRF-BP than will hCRF itself, and a ligand having a higher value will have a relatively lower binding affinity.
The assay is performed in 600 μl polypropylene microfuge tubes or a 96-well plate. First, 50 μl of a 250 ng/ml of purified recombinant CRF-BP is added to 150 μl of PBS binding buffer (50 mM sodium phosphate, 0.15M NaCl, and 0.02% NP-40). Next, ^125 I-h/r CRF at a final concentration of 200 pM and 50 μl of a 10-100 μM concentration of the ligand inhibitor are added and incubated for 1 hour at room temperature. To the reaction, 50 μl of anti-CRF-BP antibody, 5144, diluted 1:1000 with assay buffer is added to each tube and allowed to bind for a further 1 hour at room temperature. The total volume in all tubes is adjusted to 300 μl with assay buffer. Bound complexes are precipitated by the addition of 200 μl of preprecipitated goat anti-rabbit (GAR) second antibody at 1:20 in 1% normal rabbit serum, 4% PEG, 50 mM sodium phosphate, 0.1% sodium azide, followed by incubation for 1 hour at room temperature. The antibody-bound ^125 I-CRF precipitate is then collected by centrifugation (3000×g) at 4° C. for 20 minutes in a Beckman GS-15R centrifuge. Using a Beckman Biomer 1000 robotic workstation, the tubes are aspirated and washed once with 600 μl of PBS plus 0.02% NP-40. Tubes containing the pellets are then transferred to 12×74 mm counting tubes and counted in a gamma counter.
Inhibitory binding affinity constant (Ki) values are determined using the method of Munson et al., Anal. Biochem. 107:220, 1980.
A general note: Loss of bound radioactivity is the signal in a displacement assay; it reports binding, not function.
The Ki is the equilibrium dissociation constant of an inhibitor or competing ligand from its target. For the compound `CCCn1c(O)c(C=Nc2nnc(C)s2)c(=O)n(CCC)c1=S` [Compound 103], the Ki is under 100 nM.
`CCn1c(O)c(C=Nc2nc3ccccc3[nH]2)c(=O)n(CC)c1=S` [Compound 58]: the Ki is under 50 nM.
`Cc1cnc(N=Cc2c(O)n(Cc3ccccc3)c(=S)n(Cc3ccccc3)c2=O)s1` [Compound 118]: the Ki was under 50 nM.
Turning to `CCn1c(=O)c(C=Nc2nc3ccc(C)cc3s2)c(O)n(CCc2ccccc2)c1=S` [Compound 75-1], the Ki was under 100 nM.
As to `CCn1c(O)c(C=Nc2nc3ccc([N+](=O)[O-])cc3s2)c(=O)n(CC)c1=S` [Compound 79], the Ki is under 100 nM.
In the case of `CCCCCCCCCCCCCCCCSc1nnc(N=Cc2c(O)n(Cc3ccccc3)c(=S)n(Cc3ccccc3)c2=O)s1` [Compound 121], the Ki is under 50 nM.
As for `CCn1c(=O)c(C=Nc2nc3c(OC)cccc3s2)c(O)n(CCc2ccccc2)c1=S` [Compound 73-1], the Ki was under 100 nM.
With `CCn1c(O)c(C=Nc2nc3ccc(C)cc3s2)c(=O)n(CC)c1=S` [Compound 75], the Ki is under 50 nM.
In the case of `CCCn1c(O)c(C=NC(=S)Nc2ccc(Cl)cc2)c(=O)n(CCC)c1=S` [Compound 54], the Ki was under 100 nM.
Still for that read-out and setting: next, `CCn1c(=O)c(C=Nc2nncs2)c(O)n(CCc2ccccc2)c1=S` [Compound 110-1]: under 50 nM.
Take `O=c1c(C=Nc2nnc(C(F)(F)F)s2)c(O)n(Cc2ccccc2)c(=S)n1Cc1ccccc1` [Compound 105]: the Ki is under 100 nM.
As to `CCCn1c(O)c(C=Nc2nnc(C(F)(F)F)s2)c(=O)n(CCC)c1=S` [Compound 106], the Ki was under 100 nM.
As to `CCn1c(O)c(C=NC(=S)Nc2c(Cl)cc(Cl)cc2Cl)c(=O)n(CC)c1=S` [Compound 49], the Ki was under 100 nM.
In the case of `O=c1c(C=Nc2nncs2)c(O)n(Cc2ccccc2)c(=S)n1Cc1ccccc1` [Compound 111], the Ki was under 50 nM.
On to `CCn1c(O)c(C=Nc2nc3ccc(Cl)cc3s2)c(=O)n(CC)c1=S` [Compound 74], for which the Ki was under 100 nM.
With `CCn1c(O)c(C=Nc2nnc(C(F)(F)F)s2)c(=O)n(CC)c1=S` [Compound 104], the Ki is under 100 nM.
Regarding `CCn1c(=O)c(C=Nc2ncc(C)s2)c(O)n(CCc2ccccc2)c1=S` [Compound 117-1], the Ki is under 100 nM.
In the case of `CCn1c(O)c(C=Nc2nc3cc([N+](=O)[O-])ccc3s2)c(=O)n(CC)c1=S` [Compound 82], the Ki is under 50 nM.
On to `CCn1c(=O)c(C=Nc2nc3c(Cl)cccc3s2)c(O)n(CCc2ccccc2)c1=S` [Compound 95-1], for which the Ki is under 100 nM.
For `CCn1c(O)c(C=Nc2nc3c(C)cccc3s2)c(=O)n(CC)c1=S` [Compound 72], the Ki is under 100 nM.
In the case of `CCn1c(O)c(C=Nc2nc3c(C(F)(F)F)cccc3s2)c(=O)n(CC)c1=S` [Compound 80], the Ki was under 100 nM.
For `CCSc1nnc(N=Cc2c(O)n(Cc3ccccc3)c(=S)n(Cc3ccccc3)c2=O)s1` [Compound 115], the Ki was under 100 nM.
Consider `CCCn1c(O)c(C=Nc2nnc(SCC)s2)c(=O)n(CCC)c1=S` [Compound 116], for which the Ki is under 100 nM.
Consider `O=c1c(C=Nc2nc(N(Cc3ccccc3)c3ccccc3)ns2)c(O)n(Cc2ccccc2)c(=S)n1Cc1ccccc1` [Compound 132], for which the Ki is under 50 nM.
For the compound `CCn1c(O)c(C=Nc2nc3cc(C)ccc3[nH]2)c(=O)n(CC)c1=S` [Compound 86], the Ki was under 50 nM.
Take `CCn1c(O)c(C=Nc2nc3ccc(OC)cc3s2)c(=O)n(CC)c1=S` [Compound 76]: the Ki was under 50 nM.
As for `CCCn1c(O)c(C=Nc2nnc(CC)s2)c(=O)n(CCC)c1=S` [Compound 150], the Ki is under 100 nM.
As for `CCCn1c(O)c(C=Nc2nc(N(Cc3ccccc3)c3ccccc3)ns2)c(=O)n(CCC)c1=S` [Compound 133], the Ki was under 50 nM.
As for `CCn1c(=O)c(C=Nc2nnc(C(F)(F)F)s2)c(O)n(CCc2ccccc2)c1=S` [Compound 104-1], the Ki was under 100 nM.
Take `O=c1c(C=NC(=S)Nc2ccc(Cl)cc2)c(O)n(Cc2ccccc2)c(=S)n1Cc1ccccc1` [Compound 53]: the Ki is under 100 nM.
For the compound `CCn1c(=O)c(C=Nc2nc3cc(C)c(C)cc3[nH]2)c(O)n(CCc2ccccc2)c1=S` [Compound 85-1], the Ki was under 50 nM.
On the same count and under the same terms, next, `CCCn1c(O)c(C=Nc2nc3c(s2)CCC3)c(=O)n(CCC)c1=S` [Compound 172]: under 50 nM.
On the same count and under the same terms, to `CCn1c(=O)c(C=Nc2nc(N(Cc3ccccc3)c3ccccc3)ns2)c(O)n(CCc2ccccc2)c1=S` [Compound 131-1] belongs under 50 nM; to `CCn1c(O)c(C=Nc2nc3c(OC)cccc3s2)c(=O)n(CC)c1=S` [Compound 73], under 50 nM; to `Cc1cnc(N=Cc2c(O)n(Cc3cccs3)c(=S)n(Cc3cccs3)c2=O)s1` [Compound 157], under 50 nM.
For the compound `O=c1c(C=Nc2nc3ccccc3[nH]2)c(O)n(CCc2cccs2)c(=S)n1CCc1cccs1` [Compound 97], the Ki is under 50 nM.
Still for that read-out and setting: to `O=c1c(C=Nc2ncc(Br)s2)c(O)n(Cc2ccccc2)c(=S)n1Cc1ccccc1` [Compound 140] belongs under 100 nM.
As to `CCn1c(O)c(C=Nc2nc3cc(C)c(C)cc3[nH]2)c(=O)n(CC)c1=S` [Compound 85], the Ki was under 50 nM.
For `CCn1c(=O)c(C=Nc2nc3ccc(OC)cc3s2)c(O)n(CCc2ccccc2)c1=S` [Compound 76-1], the Ki was under 100 nM.

Staying with this test, now noted: read-out: inhibitory binding affinity constant (Ki).
Turning to `O=c1oc2cc(Cl)ccc2c(O)c1C=Nc1nc2c(Cl)cccc2s1` [Compound 44], the Ki is under 50 nM.
Turning to `O=c1oc2ccc(Cl)cc2c(O)c1C=Nc1nc2c(Cl)cccc2s1` [Compound 36], the Ki was under 50 nM.
Regarding `O=c1oc2ccc3ccccc3c2c(O)c1C=NC(=S)Nc1ccc(Cl)cc1` [Compound 29], the Ki is under 100 nM.
For the compound `O=c1oc2ccc(Cl)cc2c(O)c1C=NC(=S)Nc1ccc(Cl)c(Cl)c1` [Compound 2], the Ki was under 50 nM.
Regarding `O=c1oc2c(Cl)cc(Cl)cc2c(O)c1C=NC(=S)Nc1ccc(Cl)cc1` [Compound 32], the Ki is under 50 nM.
Consider `O=c1oc2ccc(Cl)cc2c(O)c1C=NC(=S)Nc1ccc(Cl)cc1` [Compound 1, 3-(p-chlorophenyl)thioureidomethylene-4-oxo-6-chloro-coumarin], for which the inhibition constant (Ki) was under 50 nM.
For the compound `O=c1oc2ccc(Cl)cc2c(O)c1C=NC(=S)Nc1ccccc1-c1ccccc1` [Compound 20], the Ki was under 50 nM.
For `O=c1oc2ccc(Cl)cc2c(O)c1C=NC(=S)Nc1c(Cl)cc(Cl)cc1Cl` [Compound 7], the inhibition constant (Ki) was under 50 nM.
Regarding `O=c1oc2ccc(Cl)cc2c(O)c1C=NC(=S)Nc1ccc(-c2ccccc2)cc1` [Compound 19], the Ki was under 50 nM.
On to `O=c1oc2ccc(Cl)cc2c(O)c1C=NC(=S)Nc1ccc(C(F)(F)F)cc1` [Compound 6], for which the Ki is under 50 nM.
Regarding `COc1cccc2sc(N=Cc3c(O)c4cc(Cl)ccc4oc3=O)nc12` [Compound 40], the Ki was under 100 nM.
`O=c1oc2cc(Cl)ccc2c(O)c1C=Nc1nc2ccc(Cl)cc2s1` [Compound 45]: the Ki is under 50 nM.
Still for that read-out and setting: to `CCn1c(=O)c(C=Nc2nc3ccccc3[nH]2)c(O)n(CCc2ccccc2)c1=S` [Compound 58-1] belongs under 100 nM; to `O=c1oc2c(Cl)cccc2c(O)c1C=NC(=S)Nc1ccc(Cl)cc1` [Compound 31], under 50 nM.
For `O=c1oc2ccc(Cl)cc2c(O)c1C=NC(=S)Nc1ccc(C2CCCCC2)cc1` [Compound 10], the Ki is under 50 nM.
